Reference: PubChem BioAssay AID2060508 (Molecular Pharmacology Branch, DTP, NCI, 2025)
pIC50: −log10 of the molar value. Several values for one entry are separate records, joined by “and”; a condition that tells them apart may be missing. Equal entries are not always repeated.

Test system: 454973-116-R2-J3-PDC spheroids, viability, % test/control
Experiment: Anticancer human tumor 454973-116-R2-J3-PDC patient-derived pancreatic carcinoma cell line growth inhibition [GQUAD]
Settings: spheroids with HUVEC and MSC; for viability, T/C: stronger effect = lower value
Excerpt: DNA G-quadruplex Stabilizer Agents in Combinations in Complex Spheroids
A high-throughput screen of multi-cell type tumor spheroids was designed to identify active combinations of DNA G-quadruplex stabilizer agents and targeted small molecules. Complex spheroids include a stromal component modeled by human endothelial cells (HUVEC) and fibroblasts modeled by human mesenchymal stem cells (MSCs). The concentration ranges selected for each drug and investigational agent were based upon clinically achievable concentrations if the clinical Cmax of the agent was known.
Compounds. The drugs and investigational agents: pidnarulex (CX-5461; NSC782164), APTO-253 (NSC789042), BRACO-19 (NSC847499), peposertib (NSC802822), ceralasertib (NSC780249), elimusertib (NSC800525), camonsertib (NSC841442), AZD-1390 (NSC803789), olaparib (NSC753686), talazoparib (NSC767125), ART-558 (NSC835418), sotorasib (NSC818433), MRTX-1133 (NSC836407), SN-38 (NSC673596), topotecan (NSC609699), etoposide (NSC141540), doxorubicin (NSC123127), gemcitabine (NSC613327), 5-fluorouracil (NSC19893), paclitaxel (NSC125973), vemurafenib (NSC761431), panobinostat (NSC761190), R-306465 (JNJ-16241199; NSC773264), adavosertib (NSC754352), TP-3654 (NSC805149), carboplatin (NSC241240), KSQ-4279 (NSC840948), and staurosporine (NSC755774) were obtained from the National Cancer Institute (NCI) Developmental Therapeutics Program Chemical Repository (34). The FDA-approved anticancer drug set is available from the NCI Developmental Therapeutics Program. […] The stock solutions were prepared in dimethyl sulfoxide (DMSO, Sigma-Aldrich, St. Louis, MO, cat. D2650) at 800-fold the tested concentration and stored at -70 degrees C prior to their use. All drugs and investigational agents were tested over a range starting from a high concentration at or near the clinical Cmax and decreasing in half-log increments. If the clinical Cmax for an agent had not been determined, the highest concentration tested was 10 microM.
2.3 Cell Culture. All cells were maintained in an incubator at 37 degrees C and 5% CO2 with 95% humidity. The PDC lines were cultured according to standard operating procedures established by the NCI PDMR. All PDCs were thawed and cultured in Matrigel-coated flasks prepared with a working solution of 1X Ham's F-12 nutrient mix, without supplementation (Invitrogen, cat. 11765054), 100 U/mL penicillin-streptomycin (Invitrogen, cat. 15140122), and 2.5% Matrigel (Corning Inc., cat. 354248) for the first three passages. The 857933-349-R-J2-PDC line was cultured in 6C/Colon 1B media, which includes advanced DMEM/F-12 (Thermo Fisher Scientific, cat. 12634028), 10 mM HEPES (Thermo Fisher Scientific, cat. 15630080), 1X GlutaMAX supplement (Thermo Fisher Scientific, cat. 35050061), 0.1 mg/mL primocin (InvivoGen, cat. ant-pm-2), 10% defined fetal bovine serum, heat inactivated (HyClone Laboratories Inc., cat. SH30070.03HI), 50% L-WRN conditioned media (ATCC, cat. CRL-3276), 1.25 mM N-Acetyl-L-cysteine (Sigma-Aldrich, cat. A9165), 10 mM nicotinamide (Sigma-Aldrich, cat. N0636), 1X B-27 supplement (Thermo Fisher Scientific, cat. 17504044), 1X N-2 supplement (Thermo Fisher Scientific, cat. 17502048), 10 microM Y-27632 dihydrochloride (Tocris Bioscience, cat. 1254), and 50 ng/mL human EGF recombinant protein (Thermo Fisher Scientific, cat. PHG0311). The 485176-168-R4-J1-PDC line was cultured in Panc media, which includes all 6C/Colon 1B media components plus 100 ng/mL human FGF-10 (Thermo Fisher Scientific, cat. 100-26), 500 nM SB-431542 (Selleckchem, cat. S1067), and gastrin (Tocris, cat. 3006).
[…]
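Also: spheroids exposed to compounds for seven days.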

| pIC50 (curve of compound) | pIC50 (compound alone, run of 04/16/2024) | pIC50 (compound alone, run of 04/22/2024) | SMILES | viability, T/C (compound 0.0316 µM) | viability, T/C (compound 0.1 µM) | viability, T/C (compound 0.316 µM) | viability, T/C (compound 1 µM) | viability, T/C (compound 3.16 µM) | viability, T/C (compound 10 µM) | viability, T/C (compound 0.000999 µM) | viability, T/C (compound 0.00316 µM) | viability, T/C (compound 0.00999 µM) | viability, T/C (compound 0.0999 µM) |
| --- | --- | --- | --- | --- | --- | --- | --- | --- | --- | --- | --- | --- | --- |
| < 5.00 and 5.11 |  |  | COc1ccc([C@@H](O)c2cc(-c3ncnc4cc(N5CCOCC5)ccc34)c(F)cc2Cl)nn1 | 110% and 102% and 111% | 94.2% and 93% and 93.8% | 103% and 91.3% and 98.6% | 89% and 93.2% and 84% | 76.2% and 71.4% and 65% | 50.3% and 57.7% and 45.4% |  |  |  |  |
| < 5.00 |  |  | COc1ncnc(C2CC2)c1-c1ncc2cnn(Cc3ccc(-c4nc(C(F)(F)F)cn4C(C)C)cc3)c2n1 | 93.7% and 116% and 113% | 103% (2×) and 110% | 94.6% and 105% and 101% | 94.7% and 98.2% and 94.5% | 114% and 109% and 97.9% | 99.9% and 102% (2×) |  |  |  |  |
|  | < 5.00 | < 5.00 | Cc1[nH]c2ccc(F)cc2c1-c1nc2c3cccnc3c3ncccc3c2[nH]1 | 106% [middle of 12 runs] | 110% [middle of 12 runs] | 106% [middle of 12 runs] | 105% [middle of 12 runs] | 100% [middle of 12 runs] | 88.5% [middle of 12 runs] |  |  |  |  |
| 7.12 and 7.14 and 7.17 |  |  | Cc1[nH]c2ccccc2c1CCNCc1ccc(/C=C/C(=O)NO)cc1 | 87.6% and 82.6% and 84.8% |  | 6.04% and 6.14% and 2.02% |  |  |  | 106% and 102% and 99.1% | 112% and 98.9% and 102% | 103% and 102% and 105% | 37.9% and 37.3% and 32% |
| < 6.50 |  |  | Cn1ncnc1[C@H]1c2n[nH]c(=O)c3cc(F)cc(c23)N[C@@H]1c1ccc(F)cc1 | 90.5% and 84.5% and 95% |  | 82.2% and 77.3% and 78.9% |  |  |  | 105% and 108% and 102% | 95.6% and 90.5% and 93.4% | 93.2% and 92.4% and 94.9% | 87.5% and 93.9% and 86.8% |
| < 5.00 |  |  | O=C(c1cc(Cc2n[nH]c(=O)c3ccccc23)ccc1F)N1CCN(C(=O)C2CC2)CC1 | 101% and 114% and 107% | 90.7% and 97.5% and 95.4% | 91.1% and 97.2% and 91.3% | 96.4% and 96.3% and 90.3% | 83.8% and 88.4% and 87.7% | 63.8% and 66.6% and 66.7% |  |  |  |  |

More lines, now with the values behind:

| SMILES | pIC50 (curve of compound) | pIC50 (compound alone, run of 04/16/2024) | pIC50 (compound alone, run of 04/22/2024) | viability, T/C (compound 0.0316 µM) | viability, T/C (compound 0.1 µM) | viability, T/C (compound 0.316 µM) | viability, T/C (compound 1 µM) | viability, T/C (compound 3.16 µM) | viability, T/C (compound 10 µM) | viability, T/C (compound 0.000999 µM) | viability, T/C (compound 0.00316 µM) | viability, T/C (compound 0.00999 µM) | viability, T/C (compound 0.0999 µM) |
| --- | --- | --- | --- | --- | --- | --- | --- | --- | --- | --- | --- | --- | --- |
| COc1cc(C2c3cc4c(cc3C(OC3OC5COC(C)OC5C(O)C3O)C3COC(=O)C23)OCO4)cc(OC)c1O (stereo not given) | 5.93 and 5.95 and 5.86 |  |  | 106% and 98.1% and 115% | 94.7% and 92.3% and 78.7% | 85.6% and 89.4% and 87.1% | 55.2% and 52.1% and 61.5% | 23.5% and 22.8% and 25.1% | 15.8% and 12.7% and 15.5% |  |  |  |  |
| COc1cccc2c1C(=O)c1c(O)c3c(c(O)c1C2=O)CC(O)(C(=O)CO)CC3OC1CC(N)C(O)C(C)O1 (stereo not given) | 6.82 and 6.65 and 6.79 |  |  | 96.8% and 101% and 90.3% | 63.4% and 69.4% and 65.3% | 24.1% and 34.5% and 26.2% | 25.2% and 30.2% and 26.5% | 11.2% and 23.5% and 13% | 0.95% and 0.93% and 0.63% |  |  |  |  |
| Cc1cccc(N(C)C(=O)C2C(O)CCN2c2nc(C)cc(C(F)(F)F)c2C#N)c1 (stereo not given) | < 5.00 |  |  | 93.2% and 106% and 100% | 98.7% and 101% and 97.4% | 105% and 106% (2×) | 102% and 93.6% and 108% | 110% and 108% and 113% | 107% (2×) and 101% |  |  |  |  |
| Cc1cnc(CNC(=O)c2c(=O)c3ccc(N4CCCN(C)CC4)nc3n3c2sc2ccccc23)cn1 |  |  |  | 92.6% [middle of 12 runs] | 82.4% [middle of 12 runs] | 74% [middle of 12 runs] | 72.2% [middle of 12 runs] | 64.6% [middle of 12 runs] |  |  |  |  |  |
| Nc1ccn(C2OC(CO)C(O)C2(F)F)c(=O)n1 (stereo not given) | > 7.50 |  |  | 19.1% and 19% and 20.8% | 16.1% and 13.3% and 15.5% | 15.3% and 17.1% and 18.8% | 16.3% and 16.7% and 16.6% | 17.3% and 14% and 17.2% | 16.6% and 13.6% and 14.2% |  |  |  |  |
| O=C(NO)c1cnc(N2CCN(S(=O)(=O)c3ccc4ccccc4c3)CC2)nc1 | 6.72 and 6.67 and 6.71 |  |  | 107% and 108% and 101% | 78.2% and 86.9% and 86.3% | 27.8% and 30.5% and 22.7% | 1.65% and 3.03% and 1.16% | 0.25% and 0.22% and 0.12% | 0.25% and 0.95% and 0.29% |  |  |  |  |
| O=c1[nH]cc(F)c(=O)[nH]1 | 5.64 and 5.68 |  |  | 111% and 108% and 105% | 93.5% and 97.6% and 87.4% | 105% and 95.1% and 107% | 76% and 70.2% and 86.5% | 32.9% and 34.6% and 35.7% | 46.3% and 42.6% and 32.9% |  |  |  |  |
